Legend:
[1] = system: Bacillus cereus (ATCC 11778); test: MIC, NCCLS broth microdilution assay; assay type: cell-based; details: A = B. cereus ATCC 11778
Procedure, shortened: (§1)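 MIC determined by broth microdilution in microtiter plates per NCCLS documents M7-A4, M11-A4 (1997) and M27-T (1995). Antifungal testing against the yeast followed the method recommended in the Manual of Clinical Microbiology (1995).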

[2] = system: Staphylococcus aureus (ATCC 13709, a methicillin sensitive strain (MSSA)); test: MIC, NCCLS broth microdilution assay; assay type: cell-based; details: E = S. aureus ATCC 13709
Procedure, shortened: as §1

[3] = system: Staphylococcus aureus (ATCC 27660, a methicillin resistant strain (MRSA)); test: MIC, NCCLS broth microdilution assay; assay type: cell-based; details: F = S. aureus ATCC 27660
Procedure, shortened: as §1

[4] = system: Candida albicans (ATCC 38247); test: Antifungal MIC assay; assay type: cell-based; details: B = C. albicans ATCC 38247
Procedure, shortened: as §1

E. faecalis ATCC 29212 = test: MIC, NCCLS broth microdilution assay; assay type: cell-based, Enterococcus faecalis; details: C = E. faecalis ATCC 29212
Procedure, shortened: (§2)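 Broth microdilution per NCCLS M7-A4 (1997) guidelines; MIC recorded as minimal inhibitory concentration.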

S. pneumoniae ATCC 49619 = test: MIC, NCCLS broth microdilution assay; assay type: cell-based, Streptococcus pneumoniae; details: H = S. pneumoniae ATCC 49619
Procedure, shortened: as §2

Row | Compound | Minimum Inhibitory Concentration (MIC) [1] | Minimum Inhibitory Concentration (MIC) [2] | Minimum Inhibitory Concentration (MIC) [3] | Minimum Inhibitory Concentration (MIC) [4] | Minimum Inhibitory Concentration (MIC) (E. faecalis ATCC 29212) | Minimum Inhibitory Concentration (MIC) (S. pneumoniae ATCC 49619)
1 | Cn1cc(NC(=O)c2cc(NC(=O)c3cc(NC(=O)c4ccc(Cl)cc4F)c[nH]3)cn2CCCO)cc1C(=O)NCCN1CCOCC1 [Compound C-14] | +++ (+++ = MIC ≦ 4) | +++ (+++ = MIC ≦ 4) | +++ (+++ = MIC ≦ 4) | >32 µg/mL | ++ (++ = 4 < MIC < 12) | +++ (+++ = MIC ≦ 4)
2 | Cn1cc(NC(=O)c2cc(NC(=O)c3cc(NC(=O)c4ccc(Cl)cc4F)c[nH]3)cn2CCCO)cc1C(=O)NCCN1CCOCC1 [Compound C-15] | ++ (++ = 4 < MIC < 12) | ++ (++ = 4 < MIC < 12) | +++ (+++ = MIC ≦ 4) | >32 µg/mL | + (+ = 12 ≦ MIC ≦ 32) | +++ (+++ = MIC ≦ 4)
3 | Cn1cc(NC(=O)c2cc(NC(=O)c3cc(NC(=O)c4ccc(Cl)cc4F)cn3CCCO)cn2C)cc1C(=O)NCCN1CCOCC1 [Compound C-16] | +++ (+++ = MIC ≦ 4) | +++ (+++ = MIC ≦ 4) | +++ (+++ = MIC ≦ 4) | >32 µg/mL | +++ (+++ = MIC ≦ 4) | +++ (+++ = MIC ≦ 4)
4 | COCn1cc(NC(=O)c2ccc(Cl)cc2F)cc1C(=O)Nc1cc(C(=O)Nc2cc(C(=O)NCCN3CCOCC3)n(C)c2)n(C)c1 [Compound C-17] | +++ (+++ = MIC ≦ 4) | +++ (+++ = MIC ≦ 4) | +++ (+++ = MIC ≦ 4) | >32 µg/mL | +++ (+++ = MIC ≦ 4) | +++ (+++ = MIC ≦ 4)
5 | Cn1cc(NC(=O)c2cc(NC(=O)c3cc(NC(=O)c4ccc(Cl)cc4F)cn3C)cn2CCCCl)cc1C(=O)NCCN1CCOCC1 [Compound C-18] | +++ (+++ = MIC ≦ 4) | +++ (+++ = MIC ≦ 4) | +++ (+++ = MIC ≦ 4) | >32 µg/mL | +++ (+++ = MIC ≦ 4) | +++ (+++ = MIC ≦ 4)
6 | Cn1cc(NC(=O)c2cc(NC(=O)c3cc(NC(=O)c4ccc(Cl)cc4F)c[nH]3)cn2CCCCl)cc1C(=O)NCCN1CCOCC1 [Compound C-19] | +++ (+++ = MIC ≦ 4) | +++ (+++ = MIC ≦ 4) | +++ (+++ = MIC ≦ 4) | >32 µg/mL | +++ (+++ = MIC ≦ 4) | +++ (+++ = MIC ≦ 4)
7 | CCSCCCn1cc(NC(=O)c2cc(NC(=O)c3ccc(Cl)cc3SCC)cn2C)cc1C(=O)Nc1cc(C(=O)Nc2cc(C(=O)NCCN3CCOCC3)n(C)c2)n(C)c1 [Compound C-20] | >32 µg/mL | >32 µg/mL | >32 µg/mL | >32 µg/mL | >32 µg/mL | +++ (+++ = MIC ≦ 4)
8 | Cc1cc(NC(=O)c2cc(NC(=O)c3cc(NC(=O)c4ccc(Cl)cc4NCCN4CCOCC4)cn3C)c[nH]2)sn1 [Compound C-21] | ++ (++ = 4 < MIC < 12) | ++ (++ = 4 < MIC < 12) | +++ (+++ = MIC ≦ 4) | >32 µg/mL | ++ (++ = 4 < MIC < 12) | +++ (+++ = MIC ≦ 4)
9 | Cc1cc(NC(=O)c2cc(NC(=O)c3cc(NC(=O)c4ccc(Cl)cc4NCCN4CCCCC4)cn3C)c[nH]2)sn1 [Compound C-22] | +++ (+++ = MIC ≦ 4) | +++ (+++ = MIC ≦ 4) | +++ (+++ = MIC ≦ 4) | + (+ = 12 ≦ MIC ≦ 32) | +++ (+++ = MIC ≦ 4) | +++ (+++ = MIC ≦ 4)
10 | Cc1cc(NC(=O)c2cc(NC(=O)c3cc(NC(=O)c4ccc(Cl)cc4NCCN4CCCC4)cn3C)c[nH]2)sn1 [Compound C-23] | +++ (+++ = MIC ≦ 4) | +++ (+++ = MIC ≦ 4) | +++ (+++ = MIC ≦ 4) | >32 µg/mL | ++ (++ = 4 < MIC < 12) | +++ (+++ = MIC ≦ 4)
11 | Cc1cc(NC(=O)c2cc(NC(=O)c3cc(NC(=O)c4ccc(Cl)cc4NCCN4CCSCC4)cn3C)c[nH]2)sn1 [Compound C-24] | ++ (++ = 4 < MIC < 12) | ++ (++ = 4 < MIC < 12) | +++ (+++ = MIC ≦ 4) | >32 µg/mL | ++ (++ = 4 < MIC < 12) | +++ (+++ = MIC ≦ 4)
12 | Cc1cc(NC(=O)c2cc(NC(=O)c3cc(NC(=O)c4ccc(Cl)cc4NCCCN4CCOCC4)cn3C)c[nH]2)sn1 [Compound C-25] | >32 µg/mL | >32 µg/mL | >32 µg/mL | >32 µg/mL | >32 µg/mL | +++ (+++ = MIC ≦ 4)
13 | Cc1cc(NC(=O)c2cc(NC(=O)c3cc(NC(=O)c4ccc(F)cc4F)cn3C)cn2CCN2CCOCC2)sn1 [Compound D-1] | +++ (+++ = MIC ≦ 4) | +++ (+++ = MIC ≦ 4) | +++ (+++ = MIC ≦ 4) | >32 µg/mL | +++ (+++ = MIC ≦ 4) | +++ (+++ = MIC ≦ 4)
14 | Cn1cc(NC(=O)c2ccc(F)cc2F)cc1C(=O)Nc1cc(C(=O)Nc2cc(C(=O)NCCN3CCCCC3)n(CCN3CCCCC3)c2)n(C)c1 [Compound D-5] | +++ (+++ = MIC ≦ 4) | +++ (+++ = MIC ≦ 4) | +++ (+++ = MIC ≦ 4) | >32 µg/mL | +++ (+++ = MIC ≦ 4) | +++ (+++ = MIC ≦ 4)
15 | Cc1cc(NC(=O)c2cc(NC(=O)c3cc(NC(=O)c4ccc(F)cc4F)cn3C)cn2CCC[N+](C)(C)C)sn1 [Compound D-6] | + (+ = 12 ≦ MIC ≦ 32) | >32 µg/mL | + (+ = 12 ≦ MIC ≦ 32) | >32 µg/mL | + (+ = 12 ≦ MIC ≦ 32) | +++ (+++ = MIC ≦ 4)
16 | CN(C)CCCn1cc(NC(=O)c2cc(NC(=O)c3ccc(F)cc3F)cn2C)cc1C(=O)Nc1cc(C(=O)NCCN2CCOCC2)n(C)c1 [Compound D-7] | +++ (+++ = MIC ≦ 4) | +++ (+++ = MIC ≦ 4) | +++ (+++ = MIC ≦ 4) | + (+ = 12 ≦ MIC ≦ 32) | +++ (+++ = MIC ≦ 4) | +++ (+++ = MIC ≦ 4)
17 | Cn1cc(NC(=O)c2cc(NC(=O)c3ccc(Cl)cc3F)c[nH]2)cc1C(=O)Nc1cc(C(=O)NCCN2CCCCC2)n(CCN2CCCCC2)c1 [Compound D-14] | +++ (+++ = MIC ≦ 4) | +++ (+++ = MIC ≦ 4) | +++ (+++ = MIC ≦ 4) | >32 µg/mL | +++ (+++ = MIC ≦ 4) | +++ (+++ = MIC ≦ 4)
18 | Cc1cc(NC(=O)c2cc(NC(=O)c3cc(NC(=O)c4ccc(Cl)cc4F)cn3CCCN(C)C)c[nH]2)sn1 [Compound D-15] | +++ (+++ = MIC ≦ 4) | +++ (+++ = MIC ≦ 4) | +++ (+++ = MIC ≦ 4) | +++ (+++ = MIC ≦ 4) | +++ (+++ = MIC ≦ 4) | +++ (+++ = MIC ≦ 4)
19 | Cc1cc(NC(=O)c2cc(NC(=O)c3cc(NC(=O)c4ccc(Cl)cc4F)c[nH]3)cn2CCC[N+](C)(C)C)sn1 [Compound D-23] | +++ (+++ = MIC ≦ 4) | +++ (+++ = MIC ≦ 4) | +++ (+++ = MIC ≦ 4) | ++ (++ = 4 < MIC < 12) | +++ (+++ = MIC ≦ 4) | +++ (+++ = MIC ≦ 4)
20 | Cc1cc(NC(=O)c2cc(NC(=O)c3cc(NC(=O)c4ccc(Cl)cc4F)cn3CCCN3CCC(O)CC3)c[nH]2)sn1 [Compound D-24] | +++ (+++ = MIC ≦ 4) | +++ (+++ = MIC ≦ 4) | +++ (+++ = MIC ≦ 4) | +++ (+++ = MIC ≦ 4) | +++ (+++ = MIC ≦ 4) | +++ (+++ = MIC ≦ 4)

Source: patent US7348427B2, “Antipathogenic benzamide compounds” (Genesoft Pharmaceuticals, Inc., priority 2001, dated 2008)
